# Experiments:
# [1] = Solubility of Compound A-7 in vehicles containing varying amounts of sorbitan monolaurate; format: physicochemical; settings: 10 mM phosphate buffer, 0.2% polysorbate 20, saline, 0%-0.75% sorbitan laurate, 25° C., HPLC (FIG. 9)
# Experimental: • a. Injection vehicles comprised of ca. 10 mM phosphate buffer, 0.2% polysorbate 20, saline and various amount of sorbitan laurate (0%-0.75%) were prepared. The injection vehicles were stirred for 4 hours before preparing suspension preparation. • b. Approximately 1.25±0.05 g of Compound A-7 were added to 15 mL injection vehicles in a 20-mL glass scintillation vial with a ⅞″× 5/16″ stirring bar. The suspension was vigorously stirred on Chemglass CG-1990-T-50 hotplate at 25° C. which was controlled using a thermal sensor. • c. At each time point, a total of 3 mL of -mixed suspension were transferred into two 1.5-mL centrifuge tubes using a plastic pipette. The tubes were centrifuged at 14,000 rpm for 4 minutes. The supernatant of both tubes were combined and centrifuged again at 14,000 rpm for 4 minutes. The HPLC sample was then prepared with final (2nd) centrifuged supernatant by diluting 0.4 mL supernatant with 0.6 mL THF. • d. Concentration of dissolved Compound A-7 was determined using HPLC.
# [2] = Previous experiments on wetting of Compound A-7 solids load by polysorbate 20; format: physicochemical; settings: 25.6 wt % solids load of Compound A-7 bulk recrystallized drug substance
# [3] = cited from earlier work
# rats = assay: Subcutaneous injection site reaction model; settings: single SC injection, Day 10, formulations comprising sorbitan laurate compared to formulations with no sorbitan laurate (FIGS. 8A, 8B)
# [4] = Wettability characterization: free energy of immersion and spreading coefficient of Compound A-7 in injection vehicles; format: physicochemical; settings: recrystallized Compound A-7 against the named injection vehicle formulation; predicted from vehicle surface tension and solid surface energy
# Description: A surface energy measurement methodology was developed that would allow for facile screening of formulation candidates with minimal use of drug substance. These experiments utilize the surface tension of the injection vehicle and surface energy of the solid to predict the immersional free energy and spreading coefficient between the liquid and the solid.
# A force-balance tensiometer (Attension Sigma® 701) with a platinum Wilhelmy plate was used to measure the surface energy (tension) of the vehicle of interest. This was done using a 30 mL sample of the vehicle of interest and taking 8 individual surface tension measurements. The first 3 measurements were discarded as being non-representative of equilibrium conditions, and the remaining measurements were averaged to give the surface tension value. […] To then obtain the polar and non-polar (dispersive) components of the surface tension, a polytetrafluoroethylene (PTFE) contact angle standard (Rame-Hart) was affixed to the tensiometer and the dynamic contact angle was measured. […]
# With the total surface tension of the liquid, and the contact angle of the liquid on a non-polar surface with known surface energy attributes, the polar and dispersive components of the surface tension were calculated. […]
compound,measurement,setting,value
"CCCCCCCCCCCC(=O)OCN1C(=O)CCc2ccc(OCCCCN3CCN(c4cccc(Cl)c4Cl)CC3)cc21 [Compound A-7, (7-(4-(4-(2,3-dichlorophenyl)piperazin-1-yl)butoxy)-2-oxo-3,4-dihydroquinolin-1(2H)-yl)methyl dodecanoate]",solubility (concentration of dissolved Compound A-7),[1],decreases solubility up to 0.5 wt % SML with solubility increasing again above 0.5 wt. %
same,polysorbate 20 required to adequately wet the drug substance,[2],at least 0.1%
"O=C1CCc2ccc(OCCCCN3CCN(c4cccc(Cl)c4Cl)CC3)cc2N1 [aripiprazole (free base), 7-{4-[4-(2,3-dichlorophenyl)-1-piperazinyl]butoxy}-3,4-dihydro-2(1H)-quinolinone]",tissue irritation,[3]; following IM and SC injection,unacceptable (moderate to severe) tissue irritation
same,pharmacokinetic profile,[3]; long-acting injections,prolonged pharmacokinetic profile
same,injection site reaction (weight of excised ISR),rats,significant reduction in injection site reaction
Cc1cc2c(s1)Nc1ccccc1N=C2N1CCN(C)CC1.O.O=C(O)c1cc2ccccc2c(Cc2c(O)c(C(=O)O)cc3ccccc23)c1O [olanzapine pamoate],injection site reaction (weight of excised ISR),rats,significant reduction in injection site reaction
Water,FREE ENERGY OF IMMERSION,[4],10 mN/m
same,SPREADING COEFFICIENT,[4],−83.3 mN/m

# — patent publication US10226458B2, “Pharmaceutical compositions comprising sorbitan esters” (Alkermes Pharma Ireland Limited, priority 2011, dated 2019)
